In publication PMC11876601 (Molecular Systems Biology, 2025):
Like-named read-outs stand apart in the source and are kept apart here.

Assays:
Assay in all cases: cells
HPDE [1] = test system: HPDE; design: ATPlite luminescence viability of PDAC cell lines, 11-dose single-agent curves, 4-parameter fit; conditions: HPDE, 72 h, read-out: EC50 [nM]
Procedure, shortened: (§1)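 cells (1000 to 5000 per well) seeded 24 h before drug addition in a combination screen at 0.2% final DMSO. Controls were drug-free wells (negative) and 5 µM staurosporine (positive).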

AsPC-1 [2] = test system: AsPC-1; design: Viability of PDAC cell lines, ATPlite luminescence, 11-dose single-agent curve fit; conditions: Homo sapiens, ASPC1, 72 h, read-out: EC50 [nM]
Procedure, shortened: (§2)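 cells (1000 to 5000 per well) seeded 24 h before drug addition in a screen at 0.2% final DMSO. Controls were drug-free wells (negative) and 5 µM staurosporine (positive).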

BxPC-3 [3] = test system: BxPC-3; design: Viability of PDAC cell lines, ATPlite luminescence, 11-dose single-agent curve fit; conditions: Homo sapiens, BXPC-3, 72 h, read-out: EC50 [nM]
Procedure, shortened: as §2

Capan-1 [4] = test system: Capan-1; design: Viability of PDAC cell lines, ATPlite luminescence, 11-dose single-agent curve fit; conditions: Homo sapiens, CAPAN-1, 72 h, read-out: EC50 [nM]
Procedure, shortened: as §2

Colo-357 [5] = test system: Colo-357; design: Viability of PDAC cell lines, ATPlite luminescence, 11-dose single-agent curve fit; conditions: Homo sapiens, COLO357, 72 h, read-out: EC50 [nM]
Procedure, shortened: as §2

Dan-G [6] = test system: Dan-G; design: Viability of PDAC cell lines, ATPlite luminescence, 11-dose single-agent curve fit; conditions: 72 h, read-out: EC50 [nM]
Procedure, shortened: as §2

FAMPAC [7] = test system: FAMPAC; design: Viability of PDAC cell lines, ATPlite luminescence, 11-dose single-agent curve fit; conditions: 72 h, read-out: EC50 [nM]
Procedure, shortened: as §2

HuP-T4 = test system: HuP-T4; design: Viability of PDAC cell lines, ATPlite luminescence, 11-dose single-agent curve fit; conditions: Homo sapiens, HuP-T4, 72 h, read-out: EC50 [nM]
Procedure, shortened: as §2

MiaPaCa-2 [8] = test system: MiaPaCa-2; design: Viability of PDAC cell lines, ATPlite luminescence, 11-dose single-agent curve fit; conditions: Homo sapiens, MIA PaCa-2, 72 h, read-out: EC50 [nM]
Procedure, shortened: as §2

PANC-1 = test system: PANC-1; design: Viability of PDAC cell lines, ATPlite luminescence, 11-dose single-agent curve fit; conditions: Homo sapiens, PANC-1, 72 h, read-out: EC50 [nM]
Procedure, shortened: as §2

PSN-1 [9] = test system: PSN-1; design: Viability of PDAC cell lines, ATPlite luminescence, 11-dose single-agent curve fit; conditions: Homo sapiens, PSN1, 72 h, read-out: EC50 [nM]
Procedure, shortened: as §2

PaTu-8988-T [10] = test system: PaTu-8988-T; design: Viability of PDAC cell lines, ATPlite luminescence, 11-dose single-agent curve fit; conditions: Homo sapiens, PaTu 8988t, 72 h, read-out: EC50 [nM]
Procedure, shortened: as §2

Suit2-07 [11] = test system: Suit2-07; design: Viability of PDAC cell lines, ATPlite luminescence, 11-dose single-agent curve fit; conditions: 72 h, read-out: EC50 [nM]
Procedure, shortened: as §2

AsPC-1 [12] = test system: AsPC-1; design: ATPlite luminescence viability of PDAC cell lines, 11-dose single-agent curves, 4-parameter fit; conditions: Homo sapiens, ASPC1, 72 h, read-out: EC50 [nM]
Procedure, shortened: as §1

BxPC-3 [13] = test system: BxPC-3; design: ATPlite luminescence viability of PDAC cell lines, 11-dose single-agent curves, 4-parameter fit; conditions: Homo sapiens, BXPC-3, 72 h, read-out: EC50 [nM]
Procedure, shortened: as §1

Colo-357 [14] = test system: Colo-357; design: ATPlite luminescence viability of PDAC cell lines, 11-dose single-agent curves, 4-parameter fit; conditions: Homo sapiens, COLO357, 72 h, read-out: EC50 [nM]
Procedure, shortened: as §1

FAMPAC [15] = test system: FAMPAC; design: ATPlite luminescence viability of PDAC cell lines, 11-dose single-agent curves, 4-parameter fit; conditions: 72 h, read-out: EC50 [nM]
Procedure, shortened: as §1

MiaPaCa-2 [16] = test system: MiaPaCa-2; design: ATPlite luminescence viability of PDAC cell lines, 11-dose single-agent curves, 4-parameter fit; conditions: Homo sapiens, MIA PaCa-2, 72 h, read-out: EC50 [nM]
Procedure, shortened: as §1

PSN-1 [17] = test system: PSN-1; design: ATPlite luminescence viability of PDAC cell lines, 11-dose single-agent curves, 4-parameter fit; conditions: Homo sapiens, PSN1, 72 h, read-out: EC50 [nM]
Procedure, shortened: as §1

PaTu-8988-T [18] = test system: PaTu-8988-T; design: ATPlite luminescence viability of PDAC cell lines, 11-dose single-agent curves, 4-parameter fit; conditions: Homo sapiens, PaTu 8988t, 72 h, read-out: EC50 [nM]
Procedure, shortened: as §1

Suit2-07 [19] = test system: Suit2-07; design: ATPlite luminescence viability of PDAC cell lines, 11-dose single-agent curves, 4-parameter fit; conditions: 72 h, read-out: EC50 [nM]
Procedure, shortened: as §1

Dan-G [20] = test system: Dan-G; design: ATPlite luminescence viability of PDAC cell lines, 11-dose single-agent curves, 4-parameter fit; conditions: 72 h, read-out: EC50 [nM]
Procedure, shortened: as §1

Capan-1 [21] = test system: Capan-1; design: ATPlite luminescence viability of PDAC cell lines, 11-dose single-agent curves, 4-parameter fit; conditions: Homo sapiens, CAPAN-1, 72 h, read-out: EC50 [nM]
Procedure, shortened: as §1

HPDE [22] = test system: HPDE; design: Viability of PDAC cell lines, ATPlite luminescence, 11-dose single-agent curve fit; conditions: HPDE, 72 h, read-out: EC50 [nM]
Procedure, shortened: as §2

Row | Compound | EC50 (HPDE [1]) [nM] | EC50 (AsPC-1 [2]) [nM] | EC50 (BxPC-3 [3]) [nM] | EC50 (Capan-1 [4]) [nM] | EC50 (Colo-357 [5]) [nM] | EC50 (FAMPAC [7]) [nM] | EC50 (HuP-T4) [nM] | EC50 (MiaPaCa-2 [8]) [nM] | EC50 (PANC-1) [nM] | EC50 (PSN-1 [9]) [nM] | EC50 (PaTu-8988-T [10]) [nM] | EC50 (Suit2-07 [11]) [nM] | EC50 (AsPC-1 [12]) [nM] | EC50 (BxPC-3 [13]) [nM] | EC50 (Colo-357 [14]) [nM] | EC50 (FAMPAC [15]) [nM] | EC50 (MiaPaCa-2 [16]) [nM] | EC50 (PSN-1 [17]) [nM] | EC50 (Suit2-07 [19]) [nM] | EC50 (Dan-G [20]) [nM] | further results
1 | CNC(=O)c1cccc2cc(Oc3ccnc4cc(OCC5(N)CC5)c(OC)cc34)ccc12 [Lucitanib] | 9210 | 8920 | 9500 | > 10000 | > 10000 | > 10000 | > 10000 | > 10000 | 2920 | 8180 | 5920 | 5330 | – | – | – | – | – | – | – | – | EC50 (Dan-G [6]): 665 nM
2 | CN(C)CCCOc1ccc(-c2ccc3ncc4c(c3c2)n(C2CCOCC2)c(=O)n4C)cn1 [AZD-0156] | 10400 | – | – | > 10000 | – | – | – | – | > 10000 | – | – | – | > 10000 | 5990 | 6410 | 1890 | 1010 | 3260 | 1960 | – | EC50 (PaTu-8988-T [18]): 606 nM; EC50 (Dan-G [6]): 4160 nM
3 | C=CC(=O)N1CCC([C@@H]2CCNc3c(C(N)=O)c(-c4ccc(Oc5ccccc5)cc4)nn32)CC1 [Zanubrutinib] | 3010 | 300 | – | 2290 | 2200 | 75.9 | 796 | 9130 | 3410 | 132 | 547 | 7180 | – | > 10000 | – | – | – | – | – | – | EC50 (Dan-G [6]): 578 nM
4 | C#Cc1cccc(Nc2ncnc3cc4c(cc23)OCCOCCOCCO4)c1 [Icotinib] | 1000 | 416 | 5260 | 1900 | – | 6990 | 0.21 | 1760 | 716 | 42 | 91.9 | 101 | – | – | 2260 | – | – | – | – | 1530 | –
5 | COc1cc(Nc2ncc3c(n2)-c2ccc(Cl)cc2C(c2c(F)cccc2OC)=NC3)ccc1C(=O)O [Alisertib] | – | 405 | – | – | – | – | 64.4 | – | 95.6 | – | 274 | 272 | – | 848 | 291 | 68.6 | 87 | 846 | – | 914 | EC50 (Capan-1 [21]): 427 nM; EC50 (HPDE [22]): 2700 nM
6 | CS(=O)(=O)CCNCc1ccc(-c2ccc3ncnc(Nc4ccc(OCc5cccc(F)c5)c(Cl)c4)c3c2)o1 [Lapatinib] | > 10000 | > 10000 | 8320 | > 10000 | – | > 10000 | > 10000 | > 10000 | > 10000 | > 10000 | > 10000 | 7910 | – | – | 815 | – | – | – | – | 3780 | –
7 | COc1cc2ncnc(Nc3cccc(Cl)c3F)c2cc1OC(=O)N1CCN(C)C[C@H]1C [AZD3759] | 483 | 515 | 847 | 1200 | – | 2880 | 2590 | 2570 | 8860 | 2560 | 1690 | 1330 | – | – | 464 | – | – | – | – | 445 | –
8 | CCn1c(=O)c(-c2cc(NC(=O)Nc3ccccc3)c(F)cc2Br)cc2cnc(NC)cc21 [Ripretinib] | 901 | – | – | 758 | 611 | – | 592 | – | > 10000 | – | – | – | 1270 | 467 | – | 912 | 589 | 582 | 431 | 501 | EC50 (PaTu-8988-T [18]): 717 nM
9 | C[C@]1(O)C[C@@H](c2nc(-c3ccc4ccc(-c5ccccc5)nc4c3)c3c(N)nccn32)C1 [Linsitinib] | 7060 | – | > 10000 | 1750 | 4180 | 4850 | 21.6 | – | > 10000 | 7340 | 6100 | – | 1540 | – | – | – | 416 | – | 239 | – | EC50 (Dan-G [6]): 3840 nM
10 | O=C1CCc2c(Oc3ccc4c(c3)[C@@H]3[C@H](O4)[C@H]3c3nc4cc(C(F)(F)F)ccc4[nH]3)ccnc2N1 [Lifirafenib] | 1980 | – | – | 9370 | 3500 | – | 4500 | – | > 10000 | – | – | – | 966 | 3060 | – | 2510 | 2650 | 696 | > 10000 | 2000 | EC50 (PaTu-8988-T [18]): 2540 nM
11 | COc1cc2/c(=N/c3ccc(Br)cc3F)nc[nH]c2cc1OCC1CCN(C)CC1 [Vandetanib] | 1520 | – | – | > 10000 | – | – | 23.9 | – | 3860 | > 10000 | – | – | > 10000 | 3600 | 6050 | > 10000 | > 10000 | – | > 10000 | > 10000 | EC50 (PaTu-8988-T [18]): > 10000 nM
12 | NC(=O)c1cccc2cn(-c3ccc([C@@H]4CCCNC4)cc3)nc12 [Niraparib] | – | > 10000 | 1010 | – | – | – | 10.5 | – | 3580 | – | 4150 | – | – | – | 1160 | 3370 | 2020 | 1740 | 1010 | 1710 | EC50 (Capan-1 [21]): 3180 nM; EC50 (HPDE [22]): 4720 nM
13 | CCN(CC)CCNC(=O)c1c(C)[nH]c(/C=C2\C(=O)Nc3ccc(F)cc32)c1C [Sunitinib] | 5050 | – | – | > 10000 | 10100 | – | 114 | – | > 10000 | – | – | – | > 10000 | 2840 | – | 5670 | 2340 | 5160 | 3180 | 4120 | EC50 (PaTu-8988-T [18]): 2190 nM
14 | C=CC(=O)Nc1cccc(Oc2nc(Nc3ccc(N4CCN(C)CC4)cc3)nc3ccsc23)c1 [Olmutinib] | 3900 | – | – | > 10000 | 8230 | – | 2230 | – | > 10000 | – | – | – | 6710 | 5220 | – | > 10000 | 5290 | 7020 | 7100 | > 10000 | EC50 (PaTu-8988-T [18]): > 10000 nM
15 | C[C@@H]1COC(Nc2ccc3ncnc(Nc4ccc(OCc5nccs5)c(Cl)c4)c3c2)=N1 [Varlitinib] | 1930 | 390 | – | 724 | – | – | 40.5 | 4440 | > 10000 | 2940 | 861 | 2070 | – | 1760 | 676 | > 10000 | – | – | – | 630 | –
